The record followed here is US12508243B2, “Compositions and methods for treating cancer and improving epithelial homeostasis” (The Regents of the University of California, priority 2019, dated 2025).

Entries after “also recorded” stand apart in the source; their conditions may differ.

Data set [1] concerns mouse ABSCs (mABSCs). The data set can be described thus: Air-liquid interface (ALI) differentiation assay with mouse ABSCs. The format is cell-based. The procedure: (§1) 24-well 6.5 mm transwells with 0.4 μm pore polyester membrane inserts were coated with 0.2 mg/mL collagen type I dissolved in 60% ethanol and allowed to air dry. ABSCs were seeded at 100,000 cells per well and allowed to grow in the submerged phase of culture for 4-5 days with 500 μl media in the basal chamber and 200 μl media in the apical chamber. ALI cultures were then established and culture with only 500 μl media in the basal chamber, and cultures harvested at varying timepoints for immunofluorescence studies. Media was changed every other day and cultures were maintained at 37° C. and 5% C02. ABSCs were treated with the indicated concentrations of GSK3XV (Sigma 361558), CHIR or WIC1.
Mouse ABSCs were grown in MTEC Plus media and MTEC serum-free media during the submerged and ALI phases of culture, respectively. MTEC base media is DMEM/Ham's F12 50/50 (Corning 15090CV). Table S1 and Table S2 indicate the media components and concentrations for MTEC Plus and MTEC serum-free media, respectively.
Mouse and human ABSCs were fixed in […] for 15 minutes followed by permeabilization with 0.50% Triton-X for 10 minutes. Cells were blocked using serum-free protein block (Dako X090930) for one hour at room temperature and overnight primary antibody incubation. Secondary antibodies were incubated for 1 hour in darkness, washed, and mounted using Vectashield hardest mounting medium with DAPI (Vector Labs H-1500). IF images were obtained using an LSM780 or LSM880 Zeiss confocal microscope and composite images generated using Fiji. […]

In data set [2] the test system is TCF/LEF luciferase reporter. The data set can be described thus: TCF/LEF luciferase reporter assay in transduced BEAS2B cells (CHIR-induced). The format is cell-based, human. The note with it: 10 nM, WIC1, MSAB, LF3, ICG001 compared. The protocol:
BEAS2B cells (ATCC CRL-9609) were seeded in a 6-well plate and infected with Cignal lentiviral particles containing a TCF/LEF luciferase reporter (Qiagen CLS-018L). Cells were spin infected at 37° C. for one hour using a multiplicity of infection of 20. Cells were selected with 0.6 μg/mL puromycin to isolate stably expressing clones.
(§2) For luciferase reporter assays conducted outside of the high-throughput drug screen, BEAS2B cells were seeded in a 96-well plate at 20,000 cells per well. The following day, cells were with treated DMSO, 5 μM CHIR99021 (CHIR; Tocris 4423), or 5 μM CHIR plus WIC2 (Key Organics GP-0355), Coumarin (Sigma C4261), or WIC1 for 24 hours. Lysis reactions were conducted using BrightGlo (Promega E1910) and incubated for two minutes at room temperature prior to transferring luminescence reactions to white-bottom, white-walled 96-well plates (Costar). Toxicity assays were conducted by adding Cell Titer Glo reagent (Promega) following manufacturer's protocol. Luminescence readings were conducted using the Clariostar plate reader.
In light of the finding that Wnt/β-catenin signaling drives ABSC hyperproliferation, a small molecule inhibitors of the pathway that could restore airway homeostasis. A high-throughput drug screen was established to identify compounds capable of reducing TCF/LEF activity measured by a luciferase reporter induced by CHIR treatment in a 384-well format (FIG. 3A). Briefly, white-bottom 384-well plates (Greiner One) were precoated overnight with 0.01 mg/mL fibronectin from human plasma (Sigma F0895), 0.03 mg/mL rat tail collagen type I (Corning 354249), and 0.01 mg/mL BSA (ThermoFisher BP-9706) diluted in 50 uL of Airway Epithelial Cell Growth Medium (PromoCell C21060). Precoat was then aspirated and washed using 100 μL the BioTek EL406. A custom V&P pin tool mounted to a Beckman FX liquid handler was then used to pin […] of 10 mM stock compound. 2,000 BEAS2B cells per well were then seeded using the Multidrop. Cells were therefore treated with 1% DMSO, 5 μM CHIR, or 5 μM CHIR+10 μM pinned compound and incubated for 24 hours at 37° C. and 5% CO2. […] 25 μL BrightGlo (Promega) was subsequently added to each well using the BioTek EL405 and incubated for 2 minutes prior reading luminescence values with the Envision plate reader (FIG. 3B). […] Z′ factor values were used to assess assay quality and was calculated by: Z′=1-3(SD Total+SDBackground)/(MeanTotal−MeanBackground) where SDTotal and MeanTotal are the standard deviation and mean of signal for CHIR-treated wells, and SDBackground and MeanBackground are the standard deviation and mean of signal for DMSO-treated wells. The Z′ factor value was calculated to be 0.82.
Background: A reporter such as luciferase makes a cellular process visible.

Data set [3] relates to mouse ABSCs (mABSCs). In words: EdU proliferation assay in mouse ABSCs, submerged culture. It is filed as cell-based. The note with it: submerged culture 4 days; for mABSC proliferation (EdU incorporation): 1 μM CHIR + 1 μM inhibitor. The procedure:
Mouse and human ABSCs were isolated following a previously published method. Briefly, mouse tracheas were dissected, cleaned, and incubated in 16 U/mL dispase for 30 minutes (1 hour for human) at room temperature. Tracheas were then incubated in 0.5 mg/mL DNase for another 30 minutes (1 hour for human) at room temperature. Epithelium was stripped and incubated in 0.1% Trypsin-EDTA for 30 minutes (1 hour for human) shaking at 37° C. to generate a single cell suspension. Isolated cells were passed through a 40 μm strainer and stained with fluorophore-conjugated antibodies against ITGA6 and TROP2. ITGA6+ TROP2+ cells were obtained via FACS that was completed using the BD FACSAria cell sorter.
In vitro proliferation was studied using the Click-iT EdU incorporation assay kit (Invitrogen C10337) following the company's protocol. Briefly, mouse and human AB SC cultures were treated with 10 μM EdU 6-8 hours prior to commencing IFs. Cells were fixed with […] for 15 minutes followed by permeabilization in 0.5% Triton-X for 20 minutes. EdU cocktail was incubated for 30 minutes in darkness followed by immunocytochemistry.
(§3) To determine whether the pathobiology observed in human patients can be modeled in vitro, mouse ABSCs (mABSCs) were treated with GSK3β inhibitor CHIR99021 (CHIR) under submerged culture conditions for 4 days to activate canonical Wnt signaling (FIG. 2A).

Data set [4] has as its system BEAS2B cells. In words: Cell Titer Glo toxicity assay in BEAS2B cells. The note with it: various concentrations. It is filed as cell-based, human. The procedure: as §2
For orientation: Cellular ATP, detected with luciferase, serves as a proxy for viable cell number.

The subject of data set [5] is p-β-catenin^Y489. The data set can be described thus: Immunofluorescence staining of phosphorylated β-catenin localization in ABSCs. It is filed as cell-based, mouse. The protocol:
(§4) Mouse and human ABSCs were fixed in […] for 15 minutes followed by permeabilization with 0.50% Triton-X for 10 minutes. Cells were blocked using serum-free protein block (Dako X090930) for one hour at room temperature and overnight primary antibody incubation. Secondary antibodies were incubated for 1 hour in darkness, washed, and mounted using Vectashield hardest mounting medium with DAPI (Vector Labs H-1500). IF images were obtained using an LSM780 or LSM880 Zeiss confocal microscope and composite images generated using Fiji.
as §3

The test system of data set [6] is TP63. In words: qRT-PCR of TP63 expression in BEAS2B cells. It is filed as cell-based, human. To be noted: addition of CHIR. The procedure:
(§5) RNA was isolated with the RNeasy Mini Kit (Qiagen 74104) following manufacturer's protocol and quantified using a NanoDrop Spectrophotometer (ThermoFisher). cDNA synthesis was performed using the TaqMan Reverse Transcription Reagents (ThermoFisher) as indicated by the company. qPCR was then performed using the TaqMan PCR Master Mix (Applied Biosystems) on the StepOne-Plus Real Time PCR System.
In general terms: Real-time PCR tracks product formation cycle by cycle.

Data set [7] relates to human ABSCs. The data set can be described thus: Air-liquid interface (ALI) differentiation assay with human ABSCs. It is filed as cell-based. The note with it: human ABSCs, treated for 21 days. The procedure: as §1, §4
To assess whether WIC1 could reverse Wnt/β-catenin-induced ABSC hyperproliferation, human ABSCs were treated with either DMSO, CHIR, or CHIR+WIC1. […] It was then sought to determine if WIC1 could promote ABSC differentiation to ciliated cells under ALI conditions.

The subject of data set [8] is Trp63. The data set can be described thus: Trp63 expression with CHIR and WIC1 treatment (FIG. 4F). It is filed as cell-based. The note with it: CHIR treatment. The protocol:
as §5

Data set [9] deals with TCF/LEF luciferase reporter. The data set can be described thus: TCF/LEF (TOPFLASH) luciferase reporter in mABSCs. The note with it: vs DMSO-treated cultures. It is filed as cell-based, mouse. The protocol:
mABSCs were seeded in a 6-well transwell plate and transiently transfected with […] of the TOPFLASH luciferase reporter and […] Renilla Luciferase reporter vector pRL-TK for internal control (Promega). Transfections were conducted using Lipofectamine 2000 Transfection Reagent (ThermoFisher 11668030) following the manufacturer's protocol.
as §3

Where [10] appears, read: mABSCs, ALI, 100 nM inhibitor vs DMSO.
[11] abbreviates: mABSCs, ALI, 1 μM inhibitor vs DMSO.
The mark [12] stands for this setting: mABSCs, ALI, GSK3β inhibitor vs DMSO.

Turning to `COC(=O)c1cccc(NS(=O)(=O)c2ccc(C)cc2)c1` [MSAB], the “Proportion of ciliated cells” value in data set [1] (setting [10]) is “neither 100 nM nor 1 μM MSAB increased differentiation to the ciliated cell fate”. The “Percentage of ciliated cells” value in data set [1] (setting [11]) is recorded as “neither 100 nM nor 1 μM MSAB increased differentiation to the ciliated cell fate”. In addition, the “TCF/LEF activity, inhibitor comparison” value in [2] is given as “only inhibitor that decreased TCF/LEF activity at 10 nM”. Also, the “mABSC proliferation (EdU incorporation)” value in data set [3] is given as “decreased mABSC proliferation to a similar degree”. The “Toxicity by Cell Titer Glo” value in data set [4] is listed as “dose dependent toxicity”.
In the case of `O=C1[C@H](Cc2ccc(O)cc2)N2C(=O)CCN(C(=O)NCc3ccccc3)[C@H]2CN1Cc1cccc2ccccc12` [ICG001], the “Proportion of ciliated cells” value in [1] (setting [10]) is “induced a greater proportion of ciliated cells”. Besides, the “Percentage of ciliated cells” value in data set [1] (setting [11]) is “no effect on the percentage of ciliated cells”. Besides, in [3], the “mABSC proliferation (EdU incorporation)” value was “decreased mABSC proliferation to a similar degree”. The “Toxicity by Cell Titer Glo” value in data set [4] is given as “dose dependent toxicity”.
As to `Cc1c[nH]c(-c2cnc(NCCNc3ccc(C#N)cn3)nc2-c2ccc(Cl)cc2Cl)n1` [CHIR, CHIR99021], in data set [1] (setting [12]), the “Percentage of ciliated cells” value is recorded as “significant reduction in the percentage of ciliated cells” and the “Pool of K5+ mABSCs” value is given as “increased pool of K5+ mABSCs”. Moreover, the ABSC morphology entry in data set [1] (mABSCs, ALI, vs DMSO) was “clumping morphology reminiscent of PMLs; also recorded: dose-dependent heaping morphology that resembles the PMLs”. In data set [5] (compound alone vs DMSO), the “Nuclear p-β-catenin^Y489” value was “increase in nuclear p-β-cateninY489; also recorded: increased nuclear p-β-catenin^Y489; also recorded: induced nuclear localization of p-β-catenin^Y489”. Besides, the “Localization of other phosphorylated forms of β-catenin (Y654, S552, S33,S37,T41)” value in [5] (mouse ABSCs, submerged phase of culture) is given as “remained primarily cytoplasmic or membranous”. Further, in [3] (compound alone vs DMSO), the “mABSC proliferation (EdU)” value was “statistically significant increase in proliferation; also recorded: statistically significant increased proliferation”. Moreover, in [6], the TP63 expression entry was “increase in TP63 expression”. In addition, in [7], the “Differentiation to the ciliated cell fate” value is on record as “abolished differentiation to the cilated cell fate” and the “Pool of ABSCs” value was “increased pool for ABSCs”. Besides, the Trp63 expression entry in data set [8] is “induction of Trp63 expression”.

B1: Wnt3A: recombinant Wnt3A protein used to raise Wnt signaling (protein, UniProt P56704 19-352, looked up)
Protein Wnt-3a: SYPIWWSLAVGPQYSSLGSQPILCASIPGLVPKQLRFCRNYVEIMPSVAEGIKIGIQECQHQFRGRRWNCTTVHDSLAIFGPVLDKATRESAFVHAIASAGVAFAVTRSCAEGTAAICGCSSRHQGSPGKGWKWGGCSEDIEFGGMVSREFADARENRPDARSAMNRHNNEAGRQAIASHMHLKCKCHGLSGSCEVKTCWWSQPDFRAIGDFLKDKYDSASEMVVEKHRESRGWVETLRPRYTYFKVPTERDLVYYEASPNFCEPNPETGSFGTRDRTCNVSSHGIDGCDLLCCGRGHNARAERRREKCRCVFHWCCYVSCQECTRVYDVHTCK
Regarding B1, the “Proportion of ciliated cells” value in data set [1] (ALI conditions, 100 ng/mL) is recorded as “increased the proportion of ciliated cells”; in data set [1] (ALI conditions, 500 ng/mL), “produced fewer ciliated cells”. Also, the “K5+ mABSCs” value in [1] (ALI conditions, 500 ng/mL) was “K5+ mABSC expansion”. Further, in [9], the “TCF/LEF activity measured by a luciferase reporter” value is recorded as “increased TCF/LEF activity”.
